Where “and” joins values, the source holds several entries; their conditions need not be identical. Identical values can stand only once. Entries after “also recorded” stand apart in the source; their conditions may differ.
Experiments:
Serotonin-uptake = Serotonin-uptake (Homo sapiens, UniProt P31645); assay: Novascreen serotonin-uptake assay, with reference to imipramine HCl; assay type: biochemical; settings: for serotonin-uptake inhibition (in words): FIGS. 1 to 4, comparison with imipramine HCl
Sequence of Serotonin-uptake (P31645 whole entry): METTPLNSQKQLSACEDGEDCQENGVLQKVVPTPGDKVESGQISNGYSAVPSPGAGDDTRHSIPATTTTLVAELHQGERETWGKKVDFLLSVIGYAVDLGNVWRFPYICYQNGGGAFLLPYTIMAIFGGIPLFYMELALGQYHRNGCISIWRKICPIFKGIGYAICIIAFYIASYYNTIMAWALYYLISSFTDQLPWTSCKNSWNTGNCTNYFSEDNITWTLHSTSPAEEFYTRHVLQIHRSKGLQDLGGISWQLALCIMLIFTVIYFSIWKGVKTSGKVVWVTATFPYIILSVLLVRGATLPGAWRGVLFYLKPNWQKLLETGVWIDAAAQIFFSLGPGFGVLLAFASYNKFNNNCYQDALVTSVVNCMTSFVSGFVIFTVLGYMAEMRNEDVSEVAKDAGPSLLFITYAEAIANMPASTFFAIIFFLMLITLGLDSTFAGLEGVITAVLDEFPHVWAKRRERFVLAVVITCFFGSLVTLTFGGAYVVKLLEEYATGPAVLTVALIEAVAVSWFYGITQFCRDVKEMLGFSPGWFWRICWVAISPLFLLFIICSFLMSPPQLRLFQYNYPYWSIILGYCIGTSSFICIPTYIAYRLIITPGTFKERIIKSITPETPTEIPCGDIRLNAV
Text: FIG. 2 is a graph for a serotonin-uptake assay of a whole plant extract of a plant from the family Mesembryanthemaceae, identified by the code number 18639, as well as some comparisons with the known serotonin-uptake inhibitor imipramine HCl;
FIG. 3 is a graph for a serotonin-uptake assay for mesembranol, identified by the code number 18623, as well as some comparisons with the known serotonin-uptake inhibitor imipramine HCl; and
FIG. 4 is a graph for a serotonin-uptake assay for mesembranone, identified by the code number 18622, as well as some comparisons with the known serotonin-uptake inhibitor imipramine HCl.
In addition, the whole plant extract of Sceletium N.E.Br., mesembranol and mesembranone were screened for biological activity by the National Institute of Mental Health in the United States of America through the contract with Novascreen.

healthy adult volunteers = assay: Study 2: single sublingual dose of pure (-)-mesembrine in healthy adult volunteers; assay type: in vivo; settings: single 200 microgram sublingual dose in 1 ml of 60% ethanol
Description: Various […] studies of the effects of the compounds of the invention were carried out in adult volunteers as follows:
Study 2. N=2 Healthy Adult Volunteers, All Health Professionals Sep. 21, 1996.

GABA B = assay: Novascreen GABA B receptor screen; assay type: binding; settings: Average: N = 2; Concentration 5,0E1

Structure (SMILES)	serotonin-uptake inhibition (in words) (Serotonin-uptake)	Anxiolytic effect (healthy adult volunteers; N=2)	Duration of anxiolytic action (healthy adult volunteers; N=2)	Sustained elevation of mood (healthy adult volunteers; N=2)	Duration of sustained elevation of mood (healthy adult volunteers; N=2, individual volunteers)	Onset of action (healthy adult volunteers; N=2, individual volunteers)	Percent Inhibition, Serotonin-uptake (Serotonin-uptake; Average: N = 2, Concentration 5,0E1)	Percent Inhibition, GABA B (GABA B)
COc1ccc(C23C=CC(=O)CC2N(C)CC3)cc1OC (stereo not shown) [mesembranone]	highly potent serotonin-uptake inhibitors	–	–	–	–	–	–	–
COc1ccc(C23CCC(=O)CC2N(C)CC3)cc1OC (single isomer, unassigned; (-)) [(-)-mesembrine, 3a-(3,4-dimethoxyphenyl)-octahydro-1-methyl-6H-indol-6-one]	highly potent serotonin-uptake inhibitor	noted by both	five hours to eight hours	noted by both	approximately eight; also recorded: eleven	7 min and 12 min	96,5%	-0,6%
COc1ccc(C23CCC(O)CC2N(C)CC3)cc1OC (stereo not shown) [mesembranol]	highly potent serotonin-uptake inhibitors	–	–	–	–	–	–	–

Reference: patent US6288104A, “Pharmaceutical compositions containing mesembrine and related compounds” (African Natural Health CC, priority 1996, dated 2001)
